From US20230067929A1, “HETEROCYCLIC DERIVATIVES, PHARMACEUTICAL COMPOSITIONS AND THEIR USE IN THE TREATMENT, AMELIORATION OR PREVENTION OF CANCER” (Tolremo Therapeutics AG, priority 2018, published 2023) come the findings set out here.

Bounds are passed on as bounds.

This test has as its system A375 cells. Description: A375 cell immunofluorescence assay (with 1 μM S1152 and 0.5 μM S1008), EC50. Type of test: cell-based. The conditions noted are these: 1 μM S1152 + 0.5 μM S1008, one day, ratio FL2/FL3 staining (sc-365823 antibody). In a few lines: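 A375 cells were treated for 1 day with 1 μM S1152, 0.5 μM S1008 and compound dose ranges in DMEM/10% FCS/2 mM glutamine, then fixed, permeabilized and immunostained (secondary antibody 2 μg/ml). FL2 (500-530 nm) signal was measured in propidium iodide-defined objects (FL3, 565-600 nm). The normalized ln FL2/ln FL3 ratio was log-transformed, and EC50 came from a 4-parameter fit.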
The term EC50 denotes the concentration that produces a half-maximal response. For the compound `CCC(=O)N1CCCC(c2nc(Nc3cccc(F)c3)cc(-c3cccnc3)n2)C1` (stereo not drawn), the concentration giving a half-maximal response (EC50) is 1 to 10 µM. On to `CCC(=O)N1CCCC(c2nc(Nc3cccc(F)c3)cc(-c3ccncc3)n2)C1` (stereo not drawn), for which the EC50 is over 10 µM. `CCC(=O)N1CCCC(c2nc(Nc3cccc(F)c3)cc(-c3ccc(N(C)C)nc3)n2)C1` (stereo not drawn): the concentration giving a half-maximal response (EC50) is over 10 µM. `CCC(=O)N1CCCC(c2nc(Nc3cccc(F)c3)cc(-c3cncc(C)c3)n2)C1` (stereo not drawn): the EC50 was 1 to 10 µM. On to `CCC(=O)N1CCCC(c2nc(Nc3cccc(F)c3)cc(-c3ccccc3OC(F)(F)F)n2)C1` (stereo not drawn), for which the EC50 was over 10 µM. The value for `CCC(=O)N1CCCC(c2nc(Nc3cccc(F)c3)cc(-c3ccsc3)n2)C1` (stereo not drawn) was over 10 µM.

Take `CCC(=O)N1CCCC(c2nc(Nc3cccc(F)c3)cc(-c3cncc(OC)c3)n2)C1` (stereo not drawn): the EC50 fell in the range of 1 to 10 µM. The value for `CCC(=O)N1CCCC(c2nc(Nc3cccc(F)c3)cc(-c3cnn(C)c3)n2)C1` (stereo not drawn) was over 10 µM; that for `CCC(=O)N1CCCC(c2nc(Nc3cccc(F)c3)cc(-c3ccc(OC)cc3)n2)C1` (stereo not drawn) was 1 to 10 µM; that for `CCC(=O)N1CCCC(c2nc(Nc3cccc(F)c3)cc(-c3ccc(C(=O)NC)nc3)n2)C1` (stereo not drawn) was over 10 µM. The value for `CCC(=O)N1CCCC(c2nc(Nc3cccc(F)c3)cc(-c3ccc(C(=O)NC)cc3)n2)C1` (stereo not drawn) was 1 to 10 µM. Under `CCC(=O)N1CCCC(c2nc(Nc3cccc(F)c3)cc(-c3cccc(C(=O)NC)c3)n2)C1` (stereo not drawn) stands over 10 µM; under `CCC(=O)N1CCCC(c2nc(Nc3cccc(F)c3)cc(-c3cccc(NC(C)=O)c3)n2)C1` (stereo not drawn), 1 to 10 µM. With `CC(=O)N1CC(c2nc(Nc3cccc(F)c3)cc(-c3cccnc3)n2)CCC1c1ccccc1` (stereo not drawn), the EC50 was over 10 µM. Take `CC(=O)N1C[C@H](c2nc(Nc3cccc(C)c3)cc(-c3cccnc3)n2)CC[C@@H]1C(F)(F)F`: the concentration for a half-maximal effect (EC50) is under 1 µM. The value for `CC(=O)N1C[C@H](c2nc(Nc3cccc(F)c3)cc(-c3cccnc3)n2)CC[C@@H]1C(F)(F)F` was under 1 µM; that for `O=C1CCC2C(c3nc(Nc4cccc(F)c4)cc(-c4cccnc4)n3)CCCN12` (stereo not drawn) was 1 to 10 µM; that for `CC(=O)NCCOCCOCCNC(=O)c1ccc(-c2cc(Nc3cccc(F)c3)nc(C3CCCN(C(C)=O)C3)n2)cc1` (stereo not drawn) was over 10 µM. For `CC(=O)N1CCCC(c2cc(Nc3cccc(F)c3)nc(-c3cccnc3)n2)C1` (stereo not drawn), the EC50 was in the range of 1 to 10 µM. The value for `CC(=O)N1CCCC(c2cc(-c3cccnc3)nc(Nc3cccc(F)c3)n2)C1` (stereo not drawn) was 1 to 10 µM; that for `CC(=O)NCCOCCOCCOCC(=O)Nc1ccc(-c2cc(Nc3cccc(F)c3)nc(C3CCCN(C(C)=O)C3)n2)cc1` (stereo not drawn) was 1 to 10 µM. In the case of `O=C1CCCC2CCC(c3nc(Nc4cccc(F)c4)cc(-c4cccnc4)n3)CN12` (stereo not drawn), the EC50 was over 10 µM. The value for `O=C1CCCC2C(c3nc(Nc4cccc(F)c4)cc(-c4cccnc4)n3)CCCN12` (stereo not drawn) was 1 to 10 µM; that for `COc1cncc(-c2cc(Nc3cccc(F)c3)nc([C@@H]3CCCN(C(C)=O)C3)n2)c1` was under 1 µM; that for `CC(=O)NCCOCCOCCOc1cncc(-c2cc(Nc3cccc(F)c3)nc(C3CCCN(C(C)=O)C3)n2)c1` (stereo not drawn) was 1 to 10 µM. As to `CC(=O)N1C[C@H](c2nc(Nc3cccc(F)c3)cc(-c3cncc(O)c3)n2)CC[C@@H]1C`, the EC50 is under 1 µM. Under `CC(=O)N1C[C@@H](c2nc(Nc3cccc(F)c3)cc(-c3cncc(O)c3)n2)CC[C@H]1C` stands over 10 µM; under `C#Cc1cc(Nc2cccc(F)c2)nc(C2CCCN(C(C)=O)C2)n1` (stereo not drawn), over 10 µM; under `CC(=O)N1CCCC(c2nc(Nc3cccc(F)c3)cc(-c3cnn[nH]3)n2)C1` (stereo not drawn), over 10 µM. `CC(=O)N1CC(O)CC(c2nc(Nc3cccc(F)c3)cc(-c3cccnc3)n2)C1` (stereo not drawn): the EC50 lay in the range of 1 to 10 µM. As to `CC(=O)N1CCCC(c2nc(Nc3cccc(F)c3)cc(-c3cncc(C4COC4)c3)n2)C1` (stereo not drawn), the EC50 was under 1 µM. As to `CC(=O)N1CCCC(c2nc(Nc3cccc(C)c3)cc(-c3cncc(N4CCOCC4)c3)n2)C1` (stereo not drawn), the EC50 was under 1 µM. With `CC(=O)N1CCCC(c2nc(Nc3cccc(F)c3)cc(-c3cncc(N4CCN(C)CC4)c3)n2)C1` (stereo not drawn), the EC50 is over 10 µM. Turning to `CC(=O)N1CCCC(c2nc(Nc3cccc(F)c3)cc(-c3cncc4nc(C)oc34)n2)C1` (stereo not drawn), the 50% effective concentration (EC50) was under 1 µM. As for `CC(=O)N1CCCC(c2nc(Nc3cccc(F)c3)cc(-c3cncc4cc[nH]c34)n2)C1` (stereo not drawn), the EC50 is over 10 µM. For `CC(=O)N1CCCC(c2nc(Nc3cccc(F)c3)cc(-c3cncc(-c4nccs4)c3)n2)C1` (stereo not drawn), the EC50 is under 1 µM.

In the case of `CC(=O)N1CCCC(c2nc(Nc3cccc(C)c3)cc(-c3cncc(-c4nccs4)c3)n2)C1` (stereo not drawn), the EC50 was under 1 µM. For `CC(=O)N1CCCC(c2nc(Nc3cccc(F)c3)cc(-c3cncc(C(=O)O)c3)n2)C1` (stereo not drawn), the EC50 is over 10 µM. For `CC(=O)N1CCCC(c2nc(Nc3cccc(F)c3)cc(-c3cncc(C(=O)N4CCOCC4)c3)n2)C1` (stereo not drawn), the EC50 lay within 1 to 10 µM.

Turning to `CC(=O)N1CCCC(c2nc(Nc3cccc(F)c3)cc(-c3cncc(C(=O)N4C[C@@H]5C[C@H]4CO5)c3)n2)C1` (stereo partly drawn), the 50% effective concentration (EC50) fell in the range of 1 to 10 µM. Consider `CC(=O)N1CCCC(c2nc(Nc3cccc(F)c3)cc(-c3cncc(C(=O)N4CCS(=O)(=O)CC4)c3)n2)C1` (stereo not drawn), for which the 50% effective concentration (EC50) is over 10 µM. `CC(=O)N1CCCC(c2nc(Nc3cccc(F)c3)cc(-c3ccc(N4CCOCC4)nc3)n2)C1` (stereo not drawn): the EC50 was 1 to 10 µM. Take `CC(=O)N1CCCC(c2nc(Nc3cccc(F)c3)cc(-c3ccc(N4C[C@@H]5C[C@H]4CO5)nc3)n2)C1` (stereo partly drawn): the half-maximal effective concentration (EC50) is 1 to 10 µM.

For the compound `CC(=O)N1CCCC(c2nc(Nc3cccc(F)c3)cc(-c3ccc(N4CCN(C)CC4)nc3)n2)C1` (stereo not drawn), the EC50 is over 10 µM. The value for `CC(=O)N1CCCC(c2nc(Nc3cccc(F)c3)cc(-c3ccc(N4CCS(=O)(=O)CC4)nc3)n2)C1` (stereo not drawn) was over 10 µM.

For `CC(=O)N1C[C@H](c2nc(Nc3cncc(C)c3)cc(-c3cccnc3)n2)CC[C@@H]1C`, the EC50 is under 1 µM. As for `CC(=O)N1CCCC(c2nc(Nc3ccccn3)cc(-c3cccnc3)n2)C1` (stereo not drawn), the concentration giving a half-maximal response (EC50) was over 10 µM. Under `CC(=O)N1CCCC(c2nc(Nc3ccccn3)cc(-c3cncc4[nH]ccc34)n2)C1` (stereo not drawn) stands 1 to 10 µM.

On to `CC(=O)N1CCCC(c2nc(Nc3ccccn3)cc(-c3cncnc3)n2)C1` (stereo not drawn), for which the EC50 is over 10 µM. Under `CC(=O)N1CCCC(c2nc(Nc3cncc(C)c3)cc(-c3cncnc3)n2)C1` (stereo not drawn) stands 1 to 10 µM. For `CC(=O)N1CCCC(c2nc(Nc3cncc(C)c3)cc(-c3cncc4[nH]ccc34)n2)C1` (stereo not drawn), the 50% effective concentration (EC50) was 1 to 10 µM. As to `CC(=O)N1CCCC(c2nc(Nc3cccnc3)cc(-c3cccnc3)n2)C1` (stereo not drawn), the EC50 was in the range of 1 to 10 µM. As for `CC(=O)N1CCCC(c2nc(Nc3cccnc3)cc(-c3cncc4[nH]ccc34)n2)C1` (stereo not drawn), the EC50 was over 10 µM. As to `CC(=O)N1CCCC(c2nc(Nc3cccnc3)cc(-c3cncnc3)n2)C1` (stereo not drawn), the concentration for a half-maximal effect (EC50) was over 10 µM. As for `CC(=O)N1CCCC(c2nc(Nc3nc(C)co3)cc(-c3cccnc3)n2)C1` (stereo not drawn), the EC50 was over 10 µM.

Regarding `CC(=O)N1CCCC(c2nc(Nc3ccon3)cc(-c3cncc4[nH]ccc34)n2)C1` (stereo not drawn), the 50% effective concentration (EC50) was over 10 µM. The value for `CC(=O)N1CCCC(c2nc(Nc3ccncc3)cc(-c3cccnc3)n2)C1` (stereo not drawn) was 1 to 10 µM; that for `CC(=O)N1CCCC(c2nc(Nc3cncc(C)n3)cc(-c3cccnc3)n2)C1` (stereo not drawn) was 1 to 10 µM. Under `CC(=O)N1CCCC(c2nc(Nc3cncc(C)n3)cc(-c3cncnc3)n2)C1` (stereo not drawn) stands over 10 µM; under `CC(=O)N1CCCC(c2nc(Nc3cncnc3)cc(-c3cccnc3)n2)C1` (stereo not drawn), over 10 µM. As to `CC(=O)N1CCCC(c2nc(Nc3ccncn3)cc(-c3cccnc3)n2)C1` (stereo not drawn), the EC50 is over 10 µM. `CC(=O)N1C[C@H](c2nc(Nc3cncc(C)c3)cc(-c3cncc(C)c3)n2)CC[C@@H]1C`: the concentration for a half-maximal effect (EC50) was under 1 µM.

On to `CC(=O)N1C[C@H](c2nc(Nc3cncc(C)c3)cc(-c3cncc4[nH]ccc34)n2)CC[C@@H]1C`, for which the EC50 was under 1 µM. Under `CC(=O)N1C[C@H](c2nc(Nc3cncc(C)c3)cc(-c3cncc(C4COC4)c3)n2)CC[C@@H]1C` stands under 1 µM; under `CC(=O)N1CCCC(c2nc(Nc3cncc(F)c3)cc(-c3cccnc3)n2)C1` (stereo not drawn), 1 to 10 µM. `CC(=O)N1CCCC(c2nc(Nc3cccnn3)cc(-c3cccnc3)n2)C1` (stereo not drawn): the EC50 is over 10 µM. With `CC(=O)N1CCCC(c2nc(Nc3ccnnc3)cc(-c3cccnc3)n2)C1` (stereo not drawn), the EC50 is over 10 µM. On to `CC(=O)N1CCCC(c2nc(Nc3ccnc(C)c3)cc(-c3cccnc3)n2)C1` (stereo not drawn), for which the concentration giving a half-maximal response (EC50) lay within 1 to 10 µM. Take `CC(=O)N1C[C@H](c2nc(Nc3ccncc3)cc(-c3cccnc3)n2)CC[C@@H]1C`: the half-maximal effective concentration (EC50) is under 1 µM. For the compound `CC(=O)N1CCCC(c2nc(Nc3cnccn3)cc(-c3cccnc3)n2)C1` (stereo not drawn), the half-maximal effective concentration (EC50) is over 10 µM.

Consider `CC(=O)N1C[C@H](c2nc(Nc3cccnc3)cc(-c3cccnc3)n2)CC[C@@H]1C`, for which the EC50 is under 1 µM.

On to `CC(=O)N1CCCC(c2nc(NC3CCCCC3)cc(-c3cccnc3)n2)C1` (stereo not drawn), for which the half-maximal effective concentration (EC50) is over 10 µM. Take `CC(=O)N1CCCC(c2nc(NC3CCCC3)cc(-c3cccnc3)n2)C1` (stereo not drawn): the EC50 is over 10 µM.

Take `CC(=O)N1CCCC(c2nc(NC34CC(C3)C4)cc(-c3cccnc3)n2)C1` (stereo not drawn): the half-maximal effective concentration (EC50) is over 10 µM. Regarding `CC(=O)N1CCCC(c2nc(NC34CC(C3)C4)cc(-c3cncc4[nH]ccc34)n2)C1` (stereo not drawn), the EC50 was in the range of 1 to 10 µM.

Turning to `CC(=O)N1CCCC(c2nc(NC34CC(C3)C4)cc(-c3cncnc3)n2)C1` (stereo not drawn), the concentration for a half-maximal effect (EC50) was over 10 µM. As to `CC(=O)N1CCCC(c2nc(Nc3cccc(F)c3)cc(N3CCOCC3)n2)C1` (stereo not drawn), the concentration giving a half-maximal response (EC50) is over 10 µM.

With `CC(=O)N1C[C@H](c2nc(Nc3cccc(C)c3)cc(-c3cncc4[nH]ncc34)n2)CC[C@@H]1C`, the 50% effective concentration (EC50) is 1 to 10 µM.

On to `CC(=O)N1CCCC(c2nc(Nc3cccc(C)c3)cc(-c3cncc4[nH]ncc34)n2)C1` (stereo not drawn), for which the half-maximal effective concentration (EC50) is under 1 µM. On to `CC(=O)N1CCCC(c2nc(Nc3cccc(F)c3)cc(-c3cncc(N4CCNCC4)c3)n2)C1` (stereo not drawn), for which the half-maximal effective concentration (EC50) is over 10 µM.

`CC(=O)N1CCN(c2cncc(-c3cc(Nc4cccc(F)c4)nc(C4CCCN(C(C)=O)C4)n3)c2)CC1` (stereo not drawn): the EC50 fell in the range of 1 to 10 µM.
